# Experimental data published in PubChem BioAssay (NCI).
#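 Step 1: Grow cells in 96-well plates. Step 2: Expose to compound for 48 hours at 5 concentrations. Step 3: Interpolate endpoints linearly; if unreached, use highest concentration. TGI: total growth inhibition.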
# What was measured:
# Test in all cases: NCI-60 cell line screen, 48 h
# A498 renal = system: A498 renal
# COLO 205 colon = system: COLO 205 colon
# HCT-116 colon = system: HCT-116 colon
# MDA-N = system: MDA-N
# OVCAR-5 ovarian = system: OVCAR-5 ovarian
# RXF 393 renal = system: RXF 393 renal
# SF-295 CNS = system: SF-295 CNS
# SK-MEL-28 melanoma = system: SK-MEL-28 melanoma
# SK-MEL-5 melanoma = system: SK-MEL-5 melanoma
# SR leukemia = system: SR leukemia
# SW-620 colon = system: SW-620 colon
# T-47D breast = system: T-47D breast
# U251 CNS = system: U251 CNS
# UACC-257 melanoma = system: UACC-257 melanoma
# UACC-62 melanoma = system: UACC-62 melanoma
# HT29 colon = system: HT29 colon
# HOP-62 NSCLC = system: HOP-62 NSCLC
# SK-OV-3 ovarian = system: SK-OV-3 ovarian
SMILES,TGI (A498 renal),TGI (COLO 205 colon),TGI (HCT-116 colon),TGI (MDA-N),TGI (OVCAR-5 ovarian),TGI (RXF 393 renal),TGI (SF-295 CNS),TGI (SK-MEL-28 melanoma),TGI (SK-MEL-5 melanoma),TGI (SR leukemia),TGI (SW-620 colon),TGI (T-47D breast),TGI (U251 CNS),TGI (UACC-257 melanoma),TGI (UACC-62 melanoma),TGI (HT29 colon),TGI (HOP-62 NSCLC),TGI (SK-OV-3 ovarian)
C=C(C(=O)O)[C@@H]1C[C@@H]2O[C@H]1CC(C)=CCC/C(C)=C/CC[C@@]2(C)O,> 100 µM,> 100 µM,> 100 µM,> 100 µM,> 100 µM,> 100 µM,> 100 µM,> 100 µM,> 100 µM,> 100 µM,> 100 µM,> 100 µM,> 100 µM,> 100 µM,> 100 µM,,,
CN(C(=O)c1cccs1)C(=S)N1CCN(c2ccccc2)CC1,,> 100 µM,,> 100 µM,> 100 µM,> 100 µM,> 100 µM,> 100 µM,> 100 µM,> 100 µM,> 100 µM,> 100 µM,> 100 µM,> 100 µM,> 100 µM,> 100 µM,,
c1ccc2c(c1)C(=Nc1ccc(N=C3c4ccccc4-c4ccccc43)cc1)c1ccccc1-2,> 100 µM,> 100 µM,> 100 µM,> 100 µM,> 100 µM,> 100 µM,> 100 µM,,> 100 µM,,> 100 µM,> 100 µM,> 100 µM,> 100 µM,> 100 µM,> 100 µM,> 100 µM,> 100 µM
N#CC(c1cc(Cl)ncn1)c1nc2ccccc2s1 (stereo not given),68.6 µM,57.6 µM,22.7 µM,24.1 µM,59.3 µM,42.5 µM,43.7 µM,42.9 µM,33.1 µM,,22 µM,> 100 µM,18.2 µM,32.2 µM,,23.6 µM,43.8 µM,28.8 µM
CCN(CC)C1=Nc2ccccc2-n2c(C)cnc2C1,> 100 µM,> 100 µM,> 100 µM,> 100 µM,> 100 µM,> 100 µM,> 100 µM,> 100 µM,> 100 µM,,> 100 µM,> 100 µM,> 100 µM,> 100 µM,> 100 µM,> 100 µM,,> 100 µM
O=C1OC(c2ccccc2)N/C1=C\c1ccc2c(c1)OCO2 (stereo not given),,> 100 µM,> 100 µM,> 100 µM,> 100 µM,> 100 µM,> 100 µM,> 100 µM,> 100 µM,63.9 µM,> 100 µM,> 100 µM,> 100 µM,> 100 µM,> 100 µM,> 100 µM,> 100 µM,> 100 µM
C[C@@H]1OC(=O)/C(=C\N(C)C)[C@H]2CC(=O)N(CCc3cn(S(=O)(=O)C(F)(F)F)c4ccccc34)C[C@H]12,> 100 µM,> 100 µM,> 100 µM,> 100 µM,> 100 µM,> 100 µM,> 100 µM,> 100 µM,> 100 µM,,> 100 µM,> 100 µM,> 100 µM,> 100 µM,,,> 100 µM,> 100 µM
COC1(C)C=NCC(C)(C)NC(=O)C(C)(OC)C=NCC(C)(C)NC1=O (stereo not given),,> 10 µM,> 10 µM,> 10 µM,,> 10 µM,> 10 µM,> 10 µM,> 10 µM,> 10 µM,> 10 µM,> 10 µM,> 10 µM,> 10 µM,> 10 µM,> 10 µM,> 10 µM,> 10 µM
Cc1c2cccc-2c(OCCO)cc2c1[nH]c1ccccc12,> 31.6 µM,9.4 µM,> 23.2 µM,7.9 µM,5.83 µM,5.37 µM,14.7 µM,20.6 µM,2.95 µM,,> 74.7 µM,24.2 µM,3.78 µM,10.7 µM,8.71 µM,14.2 µM,14.5 µM,14.4 µM
Cc1n[nH]c(=O)n1N1C(=O)c2ccccc2C1=O,> 100 µM,> 100 µM,> 100 µM,> 100 µM,> 100 µM,,> 100 µM,> 100 µM,> 100 µM,> 100 µM,> 100 µM,> 100 µM,> 100 µM,> 100 µM,> 100 µM,> 100 µM,> 100 µM,
CCCCOC(=O)C1CN2C(=NC1(C(F)(F)F)C(F)(F)F)Sc1ccccc12 (stereo not given),> 100 µM,> 100 µM,> 100 µM,> 100 µM,> 100 µM,63.4 µM,> 100 µM,> 100 µM,54.2 µM,,> 100 µM,> 100 µM,> 100 µM,> 100 µM,> 100 µM,> 100 µM,> 100 µM,> 100 µM
Cc1cc2[nH]c3c(C#N)c(-c4ccccc4)c(CN4CCOCC4)c(=O)n3c2cc1C,> 100 µM,> 100 µM,> 100 µM,> 100 µM,> 100 µM,> 100 µM,> 100 µM,> 100 µM,,,> 100 µM,> 100 µM,> 100 µM,> 100 µM,,,> 100 µM,> 100 µM
NC(CCCCNC(=O)C(Cc1ccccc1)NC(=O)OCc1ccccc1)C(=O)NC(CCCCNC(=O)C(Cc1ccccc1)NC(=O)OCc1ccccc1)C(=O)NC(CCCCNC(=O)C(Cc1ccccc1)NC(=O)OCc1ccccc1)C(=O)NC(CCCCNC(=O)C(Cc1ccccc1)NC(=O)OCc1ccccc1)C(=O)NC(CCCCNC(=O)C(Cc1ccccc1)NC(=O)OCc1ccccc1)C(=O)NC(CCCCNC(=O)C(Cc1ccccc1)NC(=O)OCc1ccccc1)C(=O)O (stereo not given),,,> 100 µM,> 100 µM,> 100 µM,,,> 100 µM,> 100 µM,> 100 µM,> 100 µM,> 100 µM,> 100 µM,> 100 µM,> 100 µM,> 100 µM,> 100 µM,
CCOC(=O)c1cc(-c2ccc(Cl)cc2)c([N+](=O)[O-])n1C,,,> 10 µM,> 10 µM,> 10 µM,,> 10 µM,,,> 10 µM,,6.45 µM,> 10 µM,> 10 µM,,> 10 µM,,> 10 µM
COC(=O)C1CCC(=O)N1C(c1ccc2c(c1)OCO2)c1ccc2c(c1)OCO2 (stereo not given),> 100 µM,> 100 µM,> 100 µM,> 100 µM,> 100 µM,,> 100 µM,> 100 µM,> 100 µM,> 100 µM,> 100 µM,> 100 µM,> 100 µM,> 100 µM,> 100 µM,> 100 µM,> 100 µM,> 100 µM
COC(=O)[C@@H]1C[C@]2(CC=C(C)C)c3ccccc3N(S(=O)(=O)c3ccccc3)[C@@H]2N1C(=O)OC,,> 100 µM,> 100 µM,> 100 µM,> 100 µM,43.9 µM,> 100 µM,> 100 µM,26 µM,99.3 µM,> 100 µM,> 100 µM,41.8 µM,51.6 µM,51.8 µM,> 100 µM,> 100 µM,> 100 µM
CCNc1ncnc2n[nH]nc12,> 100 µM,> 100 µM,> 100 µM,> 100 µM,,> 100 µM,> 100 µM,> 100 µM,> 100 µM,,> 100 µM,> 100 µM,> 100 µM,> 100 µM,> 100 µM,> 100 µM,> 100 µM,> 100 µM
CCCCCCCC/C=C/CCCCCCCC1CC(O)C(=O)O1 (stereo not given),> 100 µM,> 100 µM,> 100 µM,> 100 µM,> 100 µM,,> 100 µM,> 100 µM,> 100 µM,> 100 µM,> 100 µM,> 100 µM,> 100 µM,> 100 µM,> 100 µM,> 100 µM,> 100 µM,> 100 µM
CC(=O)OC1COC(Nn2c(=O)[nH]c3ccccc3c2=O)C(OC(C)=O)C1OC(C)=O (stereo not given),> 100 µM,> 100 µM,> 100 µM,> 100 µM,> 100 µM,,> 100 µM,> 100 µM,> 100 µM,> 100 µM,> 100 µM,> 100 µM,> 100 µM,> 100 µM,> 100 µM,> 100 µM,> 100 µM,> 100 µM
O=C(N/C(=C\c1ccccc1)C1Nc2ccccc2C(=O)O1)c1ccccc1 (stereo not given),> 100 µM,80.9 µM,36.8 µM,56.6 µM,> 100 µM,63 µM,> 100 µM,53.2 µM,34.7 µM,,59.6 µM,> 100 µM,51.2 µM,58.4 µM,> 100 µM,> 100 µM,61.6 µM,> 100 µM
CCOC(=O)C1(Cc2ccccc2)Cc2ccccc2C1=O (stereo not given),,37.7 µM,> 100 µM,44.6 µM,> 100 µM,,> 100 µM,92.5 µM,28.8 µM,78.2 µM,> 100 µM,88.3 µM,> 100 µM,,81.7 µM,65.2 µM,> 100 µM,> 100 µM
CC(=O)Nc1ccc(-c2nc3ccccc3s2)cc1O,> 100 µM,> 100 µM,> 100 µM,> 100 µM,93.8 µM,> 100 µM,> 100 µM,> 100 µM,62.8 µM,> 100 µM,> 100 µM,> 100 µM,> 100 µM,> 100 µM,83.1 µM,> 100 µM,> 100 µM,
